Test results taken from PMC3547732 (Chemistry Central Journal, 2012).

Columns and labels:
[1] = test system: Triton induced hyperlipidemia; experiment: Hypolipidemic activity in Triton induced hyperlipidemia in rats; assay type: in vivo, male Wistar rats; conditions: for Total Cholesterol / Triglyceride: Triton treated rats, 30 mg/kg oral gavage 2 h before Triton i.p., plasma 18 h after triton injection; for lipid lowering in triton treated rats (total cholesterol and TG), in words: 30 mg/kg oral gavage
Procedure: The rats were housed under optimal laboratory conditions, maintained on 12 h light and dark cycle and had free access to food (Hindustan Lever Products, Kolkata, India) and water. Animals were acclimatized to laboratory conditions before the tests. All experiments were carried out between 0900 and 1700 h. The experimental protocols were approved by the Institutional Animal Ethics Committee and conducted according to the Indian National Science Academy guidelines for the use and care of animals. Fifty five male Wistar rats were divided into the following 11 groups containing 5 animals in each group: Atrovastain and various solvates were freshly suspended in 0.5% carboxymethyl cellulose and administered by oral gavage. Two hours later, all groups except control animals received intraperitonial injection of Triton (100 mg/kg). Eighteen hours after triton injection, blood was collected from tail vein. Plasma was separated and stored at −20°C for further biochemical analysis. Total cholesterol and triglyceride were analyzed in plasma samples using diagnostic kits as per manufacturer instructions.

[2] = Enthalpy of solution by microreaction calorimetry; assay type: physicochemical; conditions: for Enthalpy of solvation ΔsolvH: calculated by equation 3 from enthalpies of solution of drug and solvate in the solvent of solvation; for Molar enthalpy of solution in its own solvent, Solvates (ΔsolH^2): each solvate in its own solvent of solvation; for Molar enthalpy of solution in its own solvent, Solvates (ΔsolH^2) / Molar enthalpy of solution, Methanol ΔsolH (methanol) / Molar enthalpy of solution of Atorvastatin Calcium (ATC) (ΔsolH^1) in the solvent of the solvate: 25°C
Procedure: Molar enthalpy of solution (ΔHsol) was determined in phosphate buffer (pH8) as well as in methanol.
In order to determine the enthalpy associated with the solvation process the enthalpy of solution of a particular solvate was determined in its own solvent.
(3) ΔsolyH=ΔsolH^1−ΔsolH^2
Calorimetric studies were performed on Microreaction calorimeter obtained from Thermal Hazards Technology, UK. Two different solvents, viz, the phosphate buffer (pH 2) and methanol were used to determine the enthalpy of solution and the measurements were performed at 25°C. The size of sample used in this study ranged from 10 to 20 mg and was weighed (Sartorius Model CP225D) into a cylindrical glass tube covered with parafilm on one side. This cylindrical tube was submerged into the ampoule containing the solvent. A plunger with a cap was put from the open end of the tube. The same solvent was put into the reference ampoule. These were put into the sample and reference holes until both rest on the base of the holes. The apparatus was maintained at constant temperature at 25°C (±0.0005°C). The parafilm was shattered mechanically by means of plunger.

[3] = Desolvation of solvates by DSC and TGA; assay type: physicochemical; conditions: for Desolvation temperature: DSC desolvation endotherm maximum, 10°C/min; for Enthalpy of desolvation, ΔdesolvH calculated from equation 4: calculated from enthalpies of solution, heat capacities and enthalpy of vapourization; for Enthalpy of desolvation per mole of solvent (binding energy): equation 1 from DSC desolvation enthalpy and TGA mass loss
Excerpt: The desolvation temperatures account for the stability of solvates as the desolvation temperature in all these forms is much higher than the boiling point of the corresponding solvent. The quantitative estimate of the stability of these solvates is established by determining the binding energy for the solvents in all the solvates using equation 1 where the percent mass loss measured over the TG desolvation step of each solvate (ΔmS%) was related to the enthalpy change calculated over the corresponding DSC desolvation endotherm (ΔHSexp).
(1) ΔHS=ΔHSexp×100Δms%×Ms
where ΔHS (J mol^-1) is the enthalpy of desolvation (or binding energy) per mole of the bound solvent, MS is the molecular mass of the solvent.
(4) ΔdesolyH=ΔsolnH^2−ΔsolnH^1−ΔCPTdesoly−25+1/2ΔyapH
. A mass between 2–8 mg was taken into the aluminium pan, covered with lid and sealed. DSC curves were obtained under a nitrogen purge of 50 mL per minute at a heating rate of 10°C per minute with the temperature range from 50-350°C.
Loss of solvent from the samples was characterized by TGA obtained by TA Instruments-Waters LLC, USA. TGA traces were recorded at heating rates of 10°C per minute under a nitrogen purge of 50 ml per minute. Samples with masses between 1–10 mg were analyzed using platinum pan. Mass loss (%) was calculated based on the mass of the original sample.

[4] = Enthalpy of solution by microreaction calorimetry; assay type: physicochemical; conditions: 25°C

| Compound | Total Cholesterol [1] | Triglyceride [1] | Enthalpy of solvation ΔsolvH [2] | Molar enthalpy of solution in its own solvent, Solvates (ΔsolH^2) [2] | Molar enthalpy of solution, Methanol ΔsolH (methanol) [2] | Enthalpy of desolvation, ΔdesolvH calculated from equation 4 [3] | Enthalpy of desolvation per mole of solvent (binding energy) [3] | Enthalpy of desolvation, ΔdesolvH from DSC [3] | Molar enthalpy of solution, Phosphate buffer (pH8) ΔsolH [4] | lipid lowering in triton treated rats (total cholesterol and TG), in words [1] | other results |
| --- | --- | --- | --- | --- | --- | --- | --- | --- | --- | --- | --- |
| CC(C)c1c(C(=O)Nc2ccccc2)c(-c2ccccc2)c(-c2ccc(F)cc2)n1CC[C@@H](O)C[C@@H](O)CC(=O)[O-].CC(C)c1c(C(=O)Nc2ccccc2)c(-c2ccccc2)c(-c2ccc(F)cc2)n1CC[C@@H](O)C[C@@H](O)CC(=O)[O-].CC(C)c1c(C(=O)Nc2ccccc2)c(-c2ccccc2)c(-c2ccc(F)cc2)n1CC[C@@H](O)C[C@@H](O)CC(=O)[O-].CC(C)c1c(C(=O)Nc2ccccc2)c(-c2ccccc2)c(-c2ccc(F)cc2)n1CC[C@@H](O)C[C@@H](O)CC(=O)[O-].CCO.O.O.[Ca+2].[Ca+2] [Solvate VII] | 202 mg/dL | 167 mg/dL | -27.902 kcal/mol | -1.02 kcal/mol | 3.04 kcal/mol | 24.847 kcal/mol | 25.48 kcal/mol | 25.01 kcal/mol | 16.98 kJ mol^-1 | – | Desolvation temperature ([3]; listed as Solvate-VII): 105.13 °C; Desolvation temperature ([3]; listed as VII): 105.1 °C |
| CC(C)O.CC(C)c1c(C(=O)Nc2ccccc2)c(-c2ccccc2)c(-c2ccc(F)cc2)n1CC[C@@H](O)C[C@@H](O)CC(=O)[O-].CC(C)c1c(C(=O)Nc2ccccc2)c(-c2ccccc2)c(-c2ccc(F)cc2)n1CC[C@@H](O)C[C@@H](O)CC(=O)[O-].CC(C)c1c(C(=O)Nc2ccccc2)c(-c2ccccc2)c(-c2ccc(F)cc2)n1CC[C@@H](O)C[C@@H](O)CC(=O)[O-].CC(C)c1c(C(=O)Nc2ccccc2)c(-c2ccccc2)c(-c2ccc(F)cc2)n1CC[C@@H](O)C[C@@H](O)CC(=O)[O-].[Ca+2].[Ca+2] [Solvate I] | 161 mg/dL | 143 mg/dL | -2.612 kcal/mol | -5.844 kcal/mol | 0.275 kcal/mol | 6.197 kcal/mol | 33.798 kcal/mol | 5.784 kcal/mol | 2.51 kJ mol^-1 | performed better than pure ATC | Desolvation temperature [3]: 84.71 °C |
| CC(C)c1c(C(=O)Nc2ccccc2)c(-c2ccccc2)c(-c2ccc(F)cc2)n1CC[C@@H](O)C[C@@H](O)CC(=O)O [ATC, Atorvastatin calcium, reference compound] | 198 mg/dL | 169 mg/dL | – | – | 4.567 kcal/mol | – | – | – | 21.89 kJ mol^-1 | reduced lipid profile | Molar enthalpy of solution of Atorvastatin Calcium (ATC) (ΔsolH^1) in the solvent of the solvate ([2]; solvent of Solvate I (isopropyl alcohol)): -3.231 kcal/mol; Molar enthalpy of solution of Atorvastatin Calcium (ATC) (ΔsolH^1) in the solvent of the solvate ([2]; solvent of Solvate II (THF)): 2.593 kcal/mol; Molar enthalpy of solution of Atorvastatin Calcium (ATC) (ΔsolH^1) in the solvent of the solvate ([2]; solvent of Solvate III (ethanol)): 7.663 kcal/mol; Molar enthalpy of solution of Atorvastatin Calcium (ATC) (ΔsolH^1) in the solvent of the solvate ([2]; solvent of Solvate IV (t-butanol)): 8.329 kcal/mol; Molar enthalpy of solution of Atorvastatin Calcium (ATC) (ΔsolH^1) in the solvent of the solvate ([2]; solvent of Solvate V (methanol)): 3.908 kcal/mol; Molar enthalpy of solution of Atorvastatin Calcium (ATC) (ΔsolH^1) in the solvent of the solvate ([2]; solvent of Solvate VI (acetone + ethanol)): 9.847 kcal/mol; Molar enthalpy of solution of Atorvastatin Calcium (ATC) (ΔsolH^1) in the solvent of the solvate ([2]; solvent of Solvate VII (ethanol + water)): 26.886 kcal/mol; Molar enthalpy of solution of Atorvastatin Calcium (ATC) (ΔsolH^1) in the solvent of the solvate ([2]; solvent of Solvate VIII (1-butanol)): 3.193 kcal/mol |
